Patent US12371454B2, “Cyclic peptide compound having Kras inhibitory action” (priority 2019, dated 2025)
Starred links: 1 amine or outer side, 2 acyl side, 3 side chain; linkers in the order of their positions; H or OH if unused. Positions of bridges follow the written chain, without caps; N, C: chain ends. Non-standard residues stand in square brackets, D forms with d. Residues, ends and D or L forms follow the SMILES beside them. *: point of attachment. hPhe(3,5-F2-4-CF3) = N[C@@H](CCc1cc(F)c(C(F)(F)F)c(F)c1)C(=O)O; hPhe(3-Cl-4-CF3) = N[C@@H](CCc1ccc(C(F)(F)F)c(Cl)c1)C(=O)O; hPhe(3-F,4-CF3) = N[C@@H](CCc1ccc(C(F)(F)F)c(F)c1)C(=O)O; NMeAla(4-thiazolyl) = CN[C@@H](Cc1cscn1)C(=O)O; NEtPhe(4-Cl) = CCN[C@@H](Cc1ccc(Cl)cc1)C(=O)O; 3Oxa8azabicyclo(3.2.1)octane = C1CC2COCC1N2*; NMeAbu(4,4,4-F3) = CN[C@@H](CC(F)(F)F)C(=O)O; NMePhe(4-Me) = CN[C@@H](Cc1ccc(C)cc1)C(=O)O; NMePhe(4-F) = CN[C@@H](Cc1ccc(F)cc1)C(=O)O; NMedβ3hAla = C[C@H](CC(=O)[*:2])N(C)[*:1]; NMeAla(cPent) = CN[C@@H](CC1CCCC1)C(=O)O; NMeGly(cPent) = CN[C@H](C(=O)O)C1CCCC1; NMeGly(cBu) = CN[C@H](C(=O)O)C1CCC1; NMeCha = CN[C@@H](CC1CCCCC1)C(=O)O; NMeChg = CN[C@H](C(=O)O)C1CCCCC1; NMeI = CC[C@H](C)[C@H](NC)C(=O)O; NMeD = CN[C@@H](CC(=O)O)C(=O)O; NMeL = CN[C@@H](CC(C)C)C(=O)O; NMeV = CN[C@H](C(=O)O)C(C)C; d(β3hA) = C[C@@H](N)CC(=O)O; Morpholide = C1CN(*)CCO1; NMeA = CN[C@@H](C)C(=O)O; Piperidide = C1CCN(*)CC1; Pyrrolidide = C1CCN(*)C1; Ac5c = NC1(C(=O)O)CCCC1; Aze = O=C(O)[C@@H]1CCN1; Aib = CC(C)(N)C(=O)O; NEtG = CCNCC(=O)O; Sar = CNCC(=O)O

Legend:
[1] = biological target: T1, Kras and SOS1 (biotin-tagged human Kras loaded with GDP, His-tagged human SOS1) (Homo sapiens, UniProt P01116, G12D); assay: Protein-protein interaction inhibition between Kras and SOS1 (KrasGl2D-SOS PPI) using AlphaScreen; assay type: binding; settings: AlphaScreen; biotin-tagged human Kras loaded with GDP, His-tagged human SOS1; read-out: KRAS G12D-SOS PPI IC50
T1 construct: made in house; host or cells: E. coli (stated for Kras only)
T1 sequence (P01116 1-188 isoform P01116-2 G12D): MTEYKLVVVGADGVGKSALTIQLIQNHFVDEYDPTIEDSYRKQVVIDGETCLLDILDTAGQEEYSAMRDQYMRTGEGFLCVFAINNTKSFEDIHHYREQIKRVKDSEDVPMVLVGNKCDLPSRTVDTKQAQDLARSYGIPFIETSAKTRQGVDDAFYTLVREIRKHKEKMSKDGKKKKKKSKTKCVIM
In short: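 Donor beads (nickel) hold His-SOS1; acceptor beads (streptavidin) hold biotin-Kras bound to GDP. Signal measured at 520-620 nm following 680 nm excitation.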

[2] = system: Human pancreatic cancer cell line AsPC-1; assay: Measurement of AsPC-1 cell growth inhibition (AsPC-1 CGI); assay type: cell-based; settings: 96 h
In short: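 AsPC-1 cells in 15% FBS RPMI-1640 were exposed to test compound for 96 hours at 37° C, with CellTiter-Glo as endpoint.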

Row | Structure (SMILES) | IC50 [1] | IC50 [2]
1 | CC[C@H](C)[C@@H]1NC(=O)[C@H](CC(C)C)N(C)C(=O)C[C@@H](C(=O)N2CCCCC2)N(C)C(=O)[C@H](CC(C)C)N(C)C(=O)C2(CCCC2)NC(=O)[C@@H]2CCCN2C(=O)[C@H](CCc2ccc(C(F)(F)F)c(F)c2)NC(=O)CN(C)C(=O)[C@H](Cc2ccc(Cl)cc2)N(CC)C(=O)CN(C)C(=O)CN(C)C1=O [Compound 328] ([NMeL]I[Sar][Sar][NEtPhe(4-Cl)][Sar][hPhe(3-F,4-CF3)]P[Ac5c][NMeL][NMeD]-Piperidide; lactam N-11) | 94 nM | 100 to 500 nM
2 | CC[C@H](C)[C@@H]1NC(=O)[C@H](CC(C)C)N(C)C(=O)C[C@@H](C)N(C)C(=O)[C@H](C(C)C)N(C)C(=O)C2(CCCC2)NC(=O)[C@@H]2CCCN2C(=O)[C@H](CCc2ccc(C(F)(F)F)c(F)c2)NC(=O)CN(C)C(=O)[C@H](CC2CCCCC2)N(C)C(=O)CN(C)C(=O)CN(C)C1=O [Compound 337] (cyclo([Ac5c][NMeV][NMedβ3hAla][NMeL]I[Sar][Sar][NMeCha][Sar][hPhe(3-F,4-CF3)]P)) | 16 nM | 100 to 500 nM
3 | CC[C@H](C)[C@@H]1NC(=O)[C@H](C2CCC2)N(C)C(=O)C[C@@H](C(=O)N2CCCC2)N(C)C(=O)[C@H](C2CCCCC2)N(C)C(=O)C2(CCCC2)NC(=O)[C@@H]2CCCN2C(=O)[C@H](CCc2ccc(C(F)(F)F)c(Cl)c2)NC(=O)CN(C)C(=O)[C@H](Cc2ccc(C)cc2)N(C)C(=O)CN(C)C(=O)CN(C)C1=O [Compound 339] ([NMeGly(cBu)]I[Sar][Sar][NMePhe(4-Me)][Sar][hPhe(3-Cl-4-CF3)]P[Ac5c][NMeChg][NMeD]-Pyrrolidide; lactam N-11) | 0.38 nM | 20 to 50 nM
4 | CC[C@H](C)[C@@H]1NC(=O)[C@H](CC(C)C)N(C)C(=O)C[C@@H](C(=O)N(C)C)N(C)C(=O)[C@H]([C@@H](C)CC)N(C)C(=O)C2(CCCC2)NC(=O)[C@H](Cc2ccc(C)cc2)N(C)C(=O)[C@H](CCc2ccc(C(F)(F)F)c(Cl)c2)NC(=O)CN(C)C(=O)[C@H](Cc2ccc(C)cc2)N(C)C(=O)[C@@H]2CCN2C(=O)[C@H](C)N(C)C1=O [Compound 340] ([NMeL]I[NMeA][Aze][NMePhe(4-Me)][Sar][hPhe(3-Cl-4-CF3)][NMePhe(4-Me)][Ac5c][NMeI][NMeD]-NMe2; lactam N-11) | 4.7 nM | 20 to 50 nM
5 | CC[C@H](C)[C@@H]1NC(=O)[C@H](C2CCC2)N(C)C(=O)C[C@@H](C(=O)N2C3CCC2COC3)N(C)C(=O)[C@H](C2CCCCC2)N(C)C(=O)C2(CCCC2)NC(=O)[C@@H]2CCCN2C(=O)[C@H](CCc2ccc(C(F)(F)F)c(Cl)c2)NC(=O)CN(C)C(=O)[C@H](Cc2ccc(C)cc2)N(C)C(=O)CN(C)C(=O)CN(C)C1=O [Compound 353] ([NMeGly(cBu)]I[Sar][Sar][NMePhe(4-Me)][Sar][hPhe(3-Cl-4-CF3)]P[Ac5c][NMeChg][NMeD]-{3Oxa8azabicyclo(3.2.1)octane}; lactam N-11) | 0.69 nM | 50 to 100 nM
6 | CC[C@H](C)[C@@H]1NC(=O)[C@H](CC(C)C)N(C)C(=O)C[C@@H](C)NC(=O)[C@H](C2CCCC2)N(C)C(=O)C(C)(C)NC(=O)[C@@H]2CCCN2C(=O)[C@H](CCc2ccc(C(F)(F)F)c(Cl)c2)NC(=O)CN(C)C(=O)[C@H](Cc2ccc(C)cc2)N(C)C(=O)[C@@H]2CCN2C(=O)[C@H](C)N(C)C1=O [Compound 354] (cyclo([Aib][NMeGly(cPent)][d(β3hA)][NMeL]I[NMeA][Aze][NMePhe(4-Me)][Sar][hPhe(3-Cl-4-CF3)]P)) | 1.6 nM | 100 to 500 nM
7 | CC[C@H](C)[C@@H]1NC(=O)[C@H](C)N(C)C(=O)C[C@@H](C(=O)N2CCCCC2)N(C)C(=O)[C@H](C(C)C)N(C)C(=O)C2(CCCC2)NC(=O)[C@@H]2CCCN2C(=O)[C@H](CCc2ccc(C(F)(F)F)c(Cl)c2)NC(=O)CN(C)C(=O)[C@H](CC2CCCCC2)N(C)C(=O)CN(C)C(=O)CN(C)C1=O [Compound 360] ([NMeA]I[Sar][Sar][NMeCha][Sar][hPhe(3-Cl-4-CF3)]P[Ac5c][NMeV][NMeD]-Piperidide; lactam N-11) | 2.8 nM | 100 to 500 nM
8 | CC[C@H](C)[C@@H]1NC(=O)[C@H](CC(C)C)N(C)C(=O)C[C@@H](C)NC(=O)[C@H](CC(C)C)N(C)C(=O)C2(CCCC2)NC(=O)[C@@H]2CCCN2C(=O)[C@H](CCc2cc(F)c(C(F)(F)F)c(F)c2)NC(=O)CN(C)C(=O)[C@H](CC2CCCCC2)N(C)C(=O)CN(C)C(=O)CN(C)C1=O [Compound 364] (cyclo([Ac5c][NMeL][d(β3hA)][NMeL]I[Sar][Sar][NMeCha][Sar][hPhe(3,5-F2-4-CF3)]P)) | 9.7 nM | 100 to 500 nM
9 | CC[C@H](C)[C@@H]1NC(=O)[C@H](CC(F)(F)F)N(C)C(=O)C[C@@H](C(=O)N2CCOCC2)N(C)C(=O)[C@H](C2CCCCC2)N(C)C(=O)C2(CCCC2)NC(=O)[C@@H]2CCCN2C(=O)[C@H](CCc2ccc(C(F)(F)F)c(Cl)c2)NC(=O)CN(C)C(=O)[C@H](CC2CCCC2)N(C)C(=O)CN(C)C(=O)CN(C)C1=O [Compound 367] ([NMeAbu(4,4,4-F3)]I[Sar][Sar][NMeAla(cPent)][Sar][hPhe(3-Cl-4-CF3)]P[Ac5c][NMeChg][NMeD]-Morpholide; lactam N-11) | 0.6 nM | 100 to 500 nM
10 | CC[C@H](C)[C@@H]1NC(=O)[C@H](CC(C)C)N(C)C(=O)C[C@@H](C(=O)N(C)C)N(C)C(=O)[C@H](C2CCCC2)N(C)C(=O)C2(CCCC2)NC(=O)[C@H](Cc2cscn2)N(C)C(=O)[C@H](CCc2ccc(C(F)(F)F)c(Cl)c2)NC(=O)CN(C)C(=O)[C@H](CC2CCCCC2)N(C)C(=O)[C@@H]2CCN2C(=O)[C@H](C)N(C)C1=O [Compound 384] ([NMeL]I[NMeA][Aze][NMeCha][Sar][hPhe(3-Cl-4-CF3)][NMeAla(4-thiazolyl)][Ac5c][NMeGly(cPent)][NMeD]-NMe2; lactam N-11) | 1 nM | 100 to 500 nM
11 | CC[C@H](C)[C@@H]1NC(=O)[C@H](CC(C)C)N(C)C(=O)C[C@@H](C(=O)N(C)C)N(C)C(=O)[C@H]([C@@H](C)CC)N(C)C(=O)C2(CCCC2)NC(=O)[C@H](Cc2ccc(F)cc2)N(C)C(=O)[C@H](CCc2ccc(C(F)(F)F)c(Cl)c2)NC(=O)CN(C)C(=O)[C@H](Cc2ccc(C)cc2)N(C)C(=O)[C@@H]2CCN2C(=O)[C@H](C)N(C)C1=O [Compound 385] ([NMeL]I[NMeA][Aze][NMePhe(4-Me)][Sar][hPhe(3-Cl-4-CF3)][NMePhe(4-F)][Ac5c][NMeI][NMeD]-NMe2; lactam N-11) | 4.7 nM | 50 to 100 nM
12 | CC[C@H](C)[C@@H]1NC(=O)[C@H](C2CCCC2)N(C)C(=O)C[C@@H](C(=O)N2CCCCC2)N(C)C(=O)[C@H](C(C)C)N(C)C(=O)C2(CCCC2)NC(=O)[C@@H]2CCCN2C(=O)[C@H](CCc2ccc(C(F)(F)F)c(Cl)c2)NC(=O)CN(C)C(=O)[C@H](CC2CCCCC2)N(C)C(=O)CN(C)C(=O)CN(C)C1=O [Compound 393] ([NMeGly(cPent)]I[Sar][Sar][NMeCha][Sar][hPhe(3-Cl-4-CF3)]P[Ac5c][NMeV][NMeD]-Piperidide; lactam N-11) | 5.3 nM | 100 to 500 nM
13 | CC[C@H](C)[C@@H]1NC(=O)[C@H](CC(C)C)N(C)C(=O)C[C@@H](C)NC(=O)[C@H](C(C)C)N(C)C(=O)C2(CCCC2)NC(=O)[C@@H]2CCCN2C(=O)[C@H](CCc2ccc(C(F)(F)F)c(Cl)c2)NC(=O)CN(CC)C(=O)[C@H](CC2CCCCC2)N(C)C(=O)CN(C)C(=O)CN(C)C1=O [Compound 395] (cyclo([Ac5c][NMeV][d(β3hA)][NMeL]I[Sar][Sar][NMeCha][NEtG][hPhe(3-Cl-4-CF3)]P)) | 47 nM | 100 to 500 nM
